In patent US11021455B2, “Brominated furanone derivative, method for preparing same, and pharmaceutical composition containing same as active ingredient” (SEOUL NATIONAL UNIVERSITY R&DB FOUNDATION, priority 2016, dated 2021):
Where two headings read alike, the source gives them in different places.

Key:
[1] = test system: biofilm formation of bacteria; test: Evaluation of inhibition of biofilm formation (overall statements); format: cell-based; settings: FIG. 20 to FIG. 21; 2000 nM, 200 nM and 20 nM
Procedure: (§1) Particularly, a sterilized cover glass slip (round shape with a radius of 12 mm) was placed on each well of a cell culture plate (24 well plate) by using a pincette. F. nucleatum A1-2 was added to cell culture medium (BHI medium+supplements) at the volume of 10% by the total volume.
(§2) The compounds of examples of the present invention were diluted to make the final concentration of each compound of 2 μM, 0.2 μM and 0.02 μM (BH1 medium: Brain Heart Infusion Medium, supplements: hemin (10 μg/ml) and vitamin K (0.2 μg/ml)).
(§3) The prepared culture solution was added to each well of the plate where the glass slip was placed, and the desired number of bacteria was inoculated into each well (F. nucleatum: 2×10^7 cells/ml, P. gingivalis: 4×10^8 cells/ml, T. forsythia: 2×10^8 cells/ml).
(§4) The prepared well plate was incubated at 37° C. under anaerobic condition (10% H2, 10% CO2 and 80% N2) for 48 hours for the culture of bacteria. The biofilm formed on the glass slip by the bacteria cultured in each group was quantitatively and comparatively analyzed using the following techniques.
The glass slip whereon biofilm had been formed was stained with 1% crystal violet solution for 10 minutes, followed by washing with PBS (phosphate buffered saline) three times, and decolorized with acetone-alcohol.
200 μl of the decolorizing solution containing crystal violet was added to each well of the microplate, and OD595 was measured using a microplate reader (Microplate reader, Model 550, Bio-Rad, USA). The measured values were compared among the groups (As the biofilm formation increased by the molecules secreted by F. nucleatum was suppressed by the compound of the present invention, the measured value was decreased.).

[2] = test system: IL-6 and IL-8 genes in THP-1 cells; test: Effect on host cell immunity: IL-6 and IL-8 gene expression by real-time RT-PCR in THP-1 cells; format: cell-based, human
Procedure: (§5) To evaluate the effect of the compounds of the present invention on host cell (normal cell) immunity, the host cells were treated with the compounds of the present invention, followed by investigation of the activity of proinflammatory cytokines in host cells.
(§6) Particularly, in order to investigate whether or not the compounds of the present invention were able to induce inflammatory responses in host cells, the expression levels of proinflammatory cytokines including interleukin (IL)-6 and IL-8 were measured by real-time RT-PCR. THP-1 cells (1×10^6 cells/well) and HGF cells (2×10^5 cells/well) were distributed in a 6 well plate, followed by culture in the presence or absence of the compounds of examples (5, 6 and 13) or lipopolysaccharide (LPS, 1 mg) known as an endotoxin of Gram negative bacteria that causes a strong immune response in host cells at 37° C. for 24 hours. Upon completion of the 24 hour culture, RNA was extracted from the THP-1 and HGF cells by using Easy-Blue total RNA extraction kit (iNtRON Biotechnology, Seongnam, Korea) according to the manufacturer's protocol. A cDNA sample ([…]) synthesized from the extracted RNA ([…]) using MMLV reverse transcription kit (Promega, Madison, Wis.) was added to each primer pair (10 pM) and Power SYBR Green Master Mix (Applied Biosystems, Warrington, UK) at the reaction volume of […]. The mixture was applied to ABI PRISM 7500 Fast Real-Time PCR system (Applied Biosystems, Foster City, Calif., USA) by using thermocycling (thermocycling: denaturation at 95° C. for 15 seconds, annealing and extension at 60° C. for 1 minute). Glyceraldehyde 3-phosphate dehydrogenase (GAPDH) gene was used as a reference gene to normalize the gene expression levels of inflammatory cytokines including interleukin 6 (IL-6) and interleukin 8 (IL-8).

[3] = test system: IL-6 and IL-8 genes in HGF cells; test: Effect on host cell immunity: IL-6 and IL-8 gene expression by real-time RT-PCR in HGF cells; format: cell-based, human
Procedure: as §5, §6

P. gingivalis biofilm = test: Inhibition of biofilm formation, crystal violet staining (OD595); format: cell-based; settings: 2000 nM, 200 nM and 20 nM; FIG. 21
Procedure: (§7) Particularly, a sterilized cover glass slip (round shape with a radius of 12 mm) was placed on each well of a cell culture plate (24 well plate) by using a pincette. F. nucleatum A1-2 was added to cell culture medium (BHI medium+supplements) at the volume of 10% by the total volume. The compounds of examples of the present invention were diluted to make the final concentration of each compound of 2 μM, 0.2 μM and 0.02 μM (BH1 medium: Brain Heart Infusion Medium, supplements: hemin (10 μg/ml) and vitamin K (0.2 μg/ml)). The prepared culture solution was added to each well of the plate where the glass slip was placed, and the desired number of bacteria was inoculated into each well (F. nucleatum: 2×10^7 cells/ml, P. gingivalis: 4×10^8 cells/ml, T. forsythia: 2×10^8 cells/ml). For the positive control not treated with the compounds of examples of the present invention (F.n AI-2), F. nucleatum AI-2 was added to the cell culture medium (BHI+supplements) and then the same number of cells was inoculated. In the meantime, for the negative control treated neither the compound of the present invention nor F. nucleatum A1-2 (Fn), PBS was added to the cell culture medium (BHI+supplements) instead of F. nucleatum A1-2 at the same volume as the above. The prepared well plate was incubated at 37° C. under anaerobic condition (10% H2, 10% CO2 and 80% N2) for 48 hours for the culture of bacteria. The biofilm formed on the glass slip by the bacteria cultured in each group was quantitatively and comparatively analyzed using the following techniques. […] 200 μl of the decolorizing solution containing crystal violet was added to each well of the microplate, and OD595 was measured using a microplate reader (Microplate reader, Model 550, Bio-Rad, USA). The measured values were compared among the groups (As the biofilm formation increased by the molecules secreted by F. nucleatum was suppressed by the compound of the present invention, the measured value was decreased.).

F. nucleatum biofilm = test: as above; format: cell-based; settings: 20 nM; compared with furanone treated control group; FIG. 20
Procedure: as §7

[4] = test system: biofilms of F. nucleatum, givalis and T. forsythia; test: Biofilm morphology, confocal scanning laser microscope technique; format: cell-based; settings: live/dead staining; FIG. 22
Procedure: as §1, §2, §3, §4
The glass slip whereon biofilm had been formed was stained by using a live/dead-BacLight bacterial viability kit (Invitrogen, Grand Island, N.Y., USA), and the morphology of the biofilm was observed under a confocal scanning laser microscope and compared.

Molecule | biofilm inhibitory activity (general statement) [1] | induction of IL-6 and IL-8 gene expression (inflammatory response) in THP-1 cells [2] | induction of IL-6 and IL-8 gene expression (inflammatory response) in HGF cells ([3]; human, 24 h) | also measured
Cc1cccc2c1C(=O)OC2=C(Br)Br [Example 13, 3-(dibromomethylene)-7-methylisobenzofuran-1(3H)-one] | particularly excellent in inhibiting biofilm formation | not to induce inflammatory responses | did not induce the expressions of IL-6 and IL-8 genes | –
O=C1OC(=C(Br)Br)C2=C1CCCC2 [Example 3, 3-(dibromomethylene)-4,5,6,7-tetrahydroisobenzofuran-1(3H)-one] | – | – | – | P. gingivalis biofilm inhibitory activity (OD595) (P. gingivalis biofilm): excellent P. gingivalis biofilm inhibitory activity
O=C1OC(=C(Br)Br)C2CCCC12 (stereo not shown) [Example 5, 3-(dibromomethylene)-hexahydrocyclopenta[c]furan-1(3H)-one] | particularly excellent in inhibiting biofilm formation | not to induce inflammatory responses | did not induce the expressions of IL-6 and IL-8 genes | F. nucleatum biofilm inhibitory activity (OD595) (F. nucleatum biofilm): superior F. nucleatum biofilm inhibitory activity at the concentration of 20 nM to the furanone treated control group
lipopolysaccharide [LPS, reference compound] | – | – | – | induction of IL-6 and IL-8 gene expression (inflammatory response) in THP-1 cells ([2]; 24 hours, normalised to GAPDH, FIG. 26): induced the expressions of IL-6 and IL-8 genes; induction of IL-6 and IL-8 gene expression (inflammatory response) in HGF cells ([3]; 24 hours, normalised to GAPDH, FIG. 27): induced the expressions of both cytokines
O=C1OC(=C(Br)Br)c2ccccc21 [Example 2, 3-(dibromomethylene)isobenzofuran-1(3H)-one] | – | – | – | inhibition of biofilm formation seen in confocal photographs [4]: inhibited the biofilm formation of bacteria
O=C1OC(=C(Br)Br)C2=C1CCC2 [Example 4, 3-(dibromomethylene)-5,6-dihydro-3H-cyclopenta[c]furan-1(4H)-one] | – | – | – | inhibition of biofilm formation seen in confocal photographs [4]: inhibited the biofilm formation of bacteria; F. nucleatum biofilm inhibitory activity (OD595) (F. nucleatum biofilm): superior F. nucleatum biofilm inhibitory activity at the concentration of 20 nM to the furanone treated control group
Cc1ccc2c(c1)C(=C(Br)Br)OC2=O [Example 6, 3-(dibromomethylene)-5-methylisobenzofuran-1(3H)-one] | particularly excellent in inhibiting biofilm formation | not to induce inflammatory responses | did not induce the expressions of IL-6 and IL-8 genes | –
